The text below walks through data of PubChem BioAssay AID588666 (The Scripps Research Institute Molecular Screening Center, 2011).

Calls of active or inactive are those of the source.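 The calls were made as follows: active = MAPK1 protein level shifted by at least 30% from DMSO-treated cells, either down or up; inactive = shift under 30% either way.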

The experiment has as its target Mitogen-activated protein kinase 1 (Homo sapiens) (UniProt P28482). The experiment is described as follows: MAPK1 protein abundance inhibitors – SW620 cells, chemiluminescent western blot, powder samples, counter-screen for KLF5 inhibitor project, late-stage follow-up (AID 588666). The settings on record: ERK1/2 western blot, 24 h, at 10 µM; for inhibition: stronger effect = higher value; for fold change: measured here: ERK1/2 protein fold change vs DMSO, stronger effect = lower value. On the technique in general: In western blotting, separated proteins are transferred to a membrane and probed.

Chain of Mitogen-activated protein kinase 1 (Homo sapiens) (P28482 whole entry, looked up): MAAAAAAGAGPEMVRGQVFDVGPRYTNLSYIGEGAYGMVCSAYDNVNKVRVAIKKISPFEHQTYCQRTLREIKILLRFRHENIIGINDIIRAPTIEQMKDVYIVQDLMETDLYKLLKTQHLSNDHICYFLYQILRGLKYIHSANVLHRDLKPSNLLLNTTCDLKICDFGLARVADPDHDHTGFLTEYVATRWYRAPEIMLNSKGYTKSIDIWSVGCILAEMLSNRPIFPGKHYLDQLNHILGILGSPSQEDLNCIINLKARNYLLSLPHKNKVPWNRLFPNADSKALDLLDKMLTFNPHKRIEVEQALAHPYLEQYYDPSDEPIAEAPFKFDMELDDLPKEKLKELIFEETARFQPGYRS

For orientation: inhibition means the change of the read-out against control, counted positive when it falls. As to `CN(C(=O)COC(=O)/C=C/c1cccc([N+](=O)[O-])c1)C1CCS(=O)(=O)C1` (stereo unspecified), the inhibition was 14.8% (inactive) and the fold change was -1.17.

In the case of `CN(C(=O)CNC(=O)/C=C/c1cccc(Cl)c1)C1CCS(=O)(=O)C1` (stereo unspecified), the inhibition is 26.9% (inactive) and the fold change is -1.37.

`CN(C(=O)CNC(=O)/C=C/c1cccc(Cl)c1)C1CCS(=O)(=O)CC1`: the inhibition was -9.9% (inactive) and the fold change is 1.1.
